Assays:
[1] = test system: DR5 (TNFRSF10B) in CAPAN cells; assay: DR5 Western blot, CAPAN cells; format: cell-based, human; conditions: Tig-R 10 ug/ml, 2 days
Protocol: A. Cells and drug-treatment: HepG2 cells (liver cancer cells), CAPAN cells, ES2 cells (Ovary cell) were cultured in DMEM medium with 10% FBS, antibiotics (Pen Strep) and L-Glutamine in a 37° C., 5% CO2 incubator. Cells in log-growth phase were treated with Tig-R (10 ug/ml), Tig-S (4 ug/ml) or DMSO (as control) for 2 days.
B. Total cell protein extraction: Drug-treated cells were collected, pelleted with centrifugation. The cell pellet was extracted with SDS-Sample buffer (containing PMSF and protease inhibitors cocktail). About 0.1 gram cell pellet was extracted in 1 ml of extraction buffer. The cell extract was then incubated in boiling water bath for 6 minutes with occasionally vortexing. The protein extract was immediately frozen in -80° C. before used.
C. SDS gel electrophoresis: 10-20 ug of protein sample was loaded into each lane of a 10% SDS gel. Electrophoresis was conducted with 100 volt constant for 2 hours.
D. Western Blot: Separated proteins from SDS gel were transferred to a nitrocellulose membrane, which was blocked with 5% non-fat dry milk. The membrane was then exposed to 1st antibody (anti-TNFRSF10B) over night, then washed. The membrane was then incubated in 2nd antibody (anti-mouse-AP conjugated) for an hour, then washed. The immuno-bands were developed with BCIP/NBT substrate.
E. Another SDS gel with same sample loading was stained with Coomassie Brilliant Blue (CBB) for protein staining.
F. Determination of Western blot band intensity: The band-images of Western blot were captured with a digital camera and the intensity of bands was determined using “Image J” software.

HepG2 cells = assay: Combined effect of anti-DR5 and Tig-R in HepG2 cells, MTT; format: cell-based, human
Protocol: Cells Culture: HepG2 cells (liver cancer cells) were cultured in DMEM medium supplemented with 10% FBS, antibiotics (Pen Strep) and L-Glutamine. Cells were incubated in a 37° C., 5% CO2 incubator.
Antibody: Antibody against Human TRAIL R2/TNFRSF 10B, (from R&D Systems cat# MAB631-100).
Drug: Tig-R (5 and 7.5 ug/ml in culture medium).
Treatment. Cells in log-growth phase were used. Cells were plated in 96-welled plate with 10 K/well over night before treatment.
Antibodies are serially diluted with medium (started from 1 ug/ml) before adding to cell culture and incubated for 2 days.
For combination studies, Tig-R (5 ug/ml or 7.5 ug/ml) were added together with antibody. After a treatment for 2 days, the quantity of live cells is determined with MTT assay*. The percentage of cell growth with drugs was determined by comparing to those of no-drug (DMSO) control.
MTT assay. Cell growth activity was determined by MTT assay (Carmichael et al.,). […] The formation of formazan was dissolved with DMSO and the O.D. at 490 nm was measured by an ELISA reader. The MTT level of cells before drug-treatment was also measured (T0). The % cell-growth (%G) is calculated as: %G = (TD-T0 / TC-T0) × 100 (1) where TC or TD represent O.D. readings of control or drug-treated cells.
When T0 > TD, then the negative growth (cytotoxicity) is expressed as - % of the control and is calculated as: - %G = (TD-T0 / T0) × 100.

[2] = test system: Human leukemia cells K562; assay: Inhibition of cell cycling, K562, flow cytometry; format: cell-based; conditions: K562, three days
Protocol: • 1. Method: Cells: Human leukemia cells K562 cultured in RPMI1640 medium. • 2. Drug: compound from present application or Tig-S (1000x stock solution in DMSO). • 3. Start cells concentration: 500000 /ml. • 4. Cells were cultured with drug (0 - 20 ug/ml) for total of three days. • 5. Cells were harvested by centrifugation (136xg, 6 minutes); fixed with 70% ethanol and kept in -20° C. before staining. • 6. Staining: Fixed cells were stained with Propidium iodide/RNase A/0.1% Triton X-100 in PBS. • 7. Flow Cytometry Analysis was performed in Baylor Core Facility with a LSRII instrument. • 8. Analysis: Single cell was gated and cell count - FL2-Area histogram were plotted. • 9. Cell distribution in different cell-cycle phases (G0/G1, S, G2/M) was analyzed.

[3] = test system: Human leukemia cells K562; assay: Apoptosis in K562 cells, Annexin V / propidium iodide flow cytometry; format: cell-based; conditions: for apoptotic cells population: two days, background 10-15%
Protocol: • 1. Cells: Human leukemia cells K562 cultured in RPMI1640 medium. • 2. Drug: Tig-S (1000x stock solution in DMSO). • 3. Start cells concentration: 500000/ml. • 4. Cells were cultured with drug (0 - 20 ug/ml) for Two days. • 5. Collect cells from culture (1 - 4 million) by centrifugation (136xg for 5 min. remove supernatant). • 6. Wash cells with 1 ml of cold PBS, collect cells by centrifugation (136xg, 5 min, remove supernatant). • 7. Re-suspend cells in 200 ul Binding buffer (10 mM HEPES, 140 mM NaCl, 2.5 mM CaCl2, pH 7.4). • 8. Stained cells by adding 10 ul Annexin V (Alexa Fluor 488, Invitrogen cat# A13201), and 2 ul Propidium iodide (1 mg/ml in water) to cell suspension. Mix. • 9. Sit at Room temperature for 15 min. • 10. Wash cells with 1 ml binding buffer. Collect cells by centrifugation. • 11. Re-suspend cells with in 1 ml of binding buffer for analysis by flow cytometry. • 12. Flow Cytometry analysis was performed in Baylor Core Facility with a LSRII instrument. • 13. Analysis: Control cells stained with PI or Annexin V-488 (Annexin V-FITC) alone were served as references. About 50000 cells were analyzed for each sample. • 14.Cell distribution in following groups: live, early apoptosis, late-apoptosis, total apoptosis and dead cells were determined. • 15.

Molecule | DR5 Western blot band intensity (Image J) ([1]; CAPAN cells) | DR5 band intensity, % of DMSO ([1]; CAPAN cells) | increase of DR5 over DMSO control cells ([1]; CAPAN) | combined effect with anti-DR5 antibody (HepG2 cells; HepG2, Tig-R 5 or 7.5 ug/ml) | inhibition of HepG2 cells' growth (HepG2 cells; Tig-R alone 5 ug/ml, 2 days) | concentration from which cells in G2/M phase decrease [2] | effect on cell cycle [2] | apoptotic cells population ([3]; 2.5 ug/ml) | apoptotic cells population ([3]; 20 ug/ml) | mechanism of cell death ([3]; K562)
24,28-O-Tigloyl-3β,16α, 21β, 22a, 24β, 28-hexahydroxyolean-12-ene [Tig-R] | 29128 | 151% | 51% | synergistic | 15-20% |  |  |  |  | 
CC=C(C)C(=O)OCC1(C)C(O)CCC2(C)C1CCC1(C)C2CC=C2C3CC(C)(C)C(OC(=O)C(C)=CC)C(O)C3(CO)C(O)CC21C (stereo not shown) [Tig-S] |  |  |  |  |  | ≥ 0.6 µg/mL | arresting cells in the S-phase | 15% | 27% | induces cell-death by the apoptosis mechanism
